A word on the Cmax: it is the highest concentration seen after dosing. As usually defined, the Tmax is the time at which the peak concentration occurs. As usually defined, the AUC(0-t) is the area under the concentration-time curve up to a stated or last time point. Read a high AUC(0-t) as more exposure. Usually half-life stands for how long it takes for the measured level to halve. As usually defined, the IC50 is the point on the concentration scale where inhibition reaches its midpoint. The term clearance denotes a measure of how efficiently the substance is removed, as volume per time. A higher clearance goes with a high capacity for elimination. By fraction unbound is commonly meant the share of the substance not bound to proteins or other matrix. As a reminder, the inhibition is the drop in the measured response relative to a control, in per cent.

Data set [1] in a line: Cmax in C57BL/6J mouse at 10 mg/kg, po. The data set is classed as ADME, organism-based. The note with it: in vivo.
Data set [2] can be described thus: Tmax in C57BL/6J mouse at 10 mg/kg, po. The data set is classed as ADME, organism-based. To be noted: in vivo.
A short description of data set [3]: AUC (0 to 24 hrs) in C57BL/6J mouse at 10 mg/kg, po. The data set is classed as ADME, organism-based. The note with it: in vivo.
Data set [4] can be described thus: Half-life in C57BL/6J mouse at 10 mg/kg, po. The data set is classed as ADME, organism-based. To be noted: in vivo.
Data set [5] addresses AP2-associated protein kinase 1 (Homo sapiens, UniProt Q2M2I8). Nature of the data set: Inhibition of AAK1 (unknown origin).
Data set [6] can be described thus: Clearance in C57BL/6J mouse at 1 mg/kg, iv. The data set is classed as ADME, organism-based. To be noted: in vivo.
Data set [7] in a line: Apparent volume of distribution in C57BL/6J mouse at 1 mg/kg, iv. The data set is classed as ADME, organism-based. To be noted: in vivo, read-out: Vz.
Data set [8] in a line: AUC (0 to 24 hrs) in C57BL/6J mouse at 1 mg/kg, iv. The data set is classed as ADME, organism-based. To be noted: in vivo.
Data set [9] is described as follows: Half-life in C57BL/6J mouse at 1 mg/kg, iv. The note with it: in vivo. The data set is classed as ADME, organism-based.
Data set [10] in a line: Oral bioavailability in C57BL/6J mouse at 10 mg/kg. The data set is classed as ADME, organism-based. The note with it: in vivo.
Data set [11] is described as follows: Metabolic stability in human liver microsomes assessed as half-life. The data set is classed as ADME, Microsome.
Data set [12] in a line: Metabolic stability in mouse liver microsomes assessed as half-life. The data set is classed as ADME, Microsome. (In general: Microsomes from liver hold many membrane-bound enzymes, among them those of drug oxidation.)
A short description of data set [13]: Metabolic stability in rat liver microsomes assessed as half-life. The data set is classed as ADME, Microsome.
A short description of data set [14]: Metabolic stability in dog liver microsomes assessed as half-life. The data set is classed as ADME, Canis lupus familiaris, Microsome.
A short description of data set [15]: Protein binding in human plasma assessed as unbound fraction. The data set is classed as ADME, cell-free.
Data set [16] is described as follows: Protein binding in mouse plasma assessed as unbound fraction. The data set is classed as ADME, cell-free.
Data set [17] is described as follows: Protein binding in rat plasma assessed as unbound fraction. The data set is classed as ADME, cell-free.
Data set [18] in a line: Protein binding in dog plasma assessed as unbound fraction. The data set is classed as ADME, cell-free, Canis lupus familiaris.
Data set [19] deals with Voltage-gated inwardly rectifying potassium channel KCNH2 (Homo sapiens, UniProt Q12809). Nature of the data set: Inhibition of human ERG by patch clamp assay. The data set is classed as toxicity.
Sequence of Voltage-gated inwardly rectifying potassium channel KCNH2 (Q12809 whole entry): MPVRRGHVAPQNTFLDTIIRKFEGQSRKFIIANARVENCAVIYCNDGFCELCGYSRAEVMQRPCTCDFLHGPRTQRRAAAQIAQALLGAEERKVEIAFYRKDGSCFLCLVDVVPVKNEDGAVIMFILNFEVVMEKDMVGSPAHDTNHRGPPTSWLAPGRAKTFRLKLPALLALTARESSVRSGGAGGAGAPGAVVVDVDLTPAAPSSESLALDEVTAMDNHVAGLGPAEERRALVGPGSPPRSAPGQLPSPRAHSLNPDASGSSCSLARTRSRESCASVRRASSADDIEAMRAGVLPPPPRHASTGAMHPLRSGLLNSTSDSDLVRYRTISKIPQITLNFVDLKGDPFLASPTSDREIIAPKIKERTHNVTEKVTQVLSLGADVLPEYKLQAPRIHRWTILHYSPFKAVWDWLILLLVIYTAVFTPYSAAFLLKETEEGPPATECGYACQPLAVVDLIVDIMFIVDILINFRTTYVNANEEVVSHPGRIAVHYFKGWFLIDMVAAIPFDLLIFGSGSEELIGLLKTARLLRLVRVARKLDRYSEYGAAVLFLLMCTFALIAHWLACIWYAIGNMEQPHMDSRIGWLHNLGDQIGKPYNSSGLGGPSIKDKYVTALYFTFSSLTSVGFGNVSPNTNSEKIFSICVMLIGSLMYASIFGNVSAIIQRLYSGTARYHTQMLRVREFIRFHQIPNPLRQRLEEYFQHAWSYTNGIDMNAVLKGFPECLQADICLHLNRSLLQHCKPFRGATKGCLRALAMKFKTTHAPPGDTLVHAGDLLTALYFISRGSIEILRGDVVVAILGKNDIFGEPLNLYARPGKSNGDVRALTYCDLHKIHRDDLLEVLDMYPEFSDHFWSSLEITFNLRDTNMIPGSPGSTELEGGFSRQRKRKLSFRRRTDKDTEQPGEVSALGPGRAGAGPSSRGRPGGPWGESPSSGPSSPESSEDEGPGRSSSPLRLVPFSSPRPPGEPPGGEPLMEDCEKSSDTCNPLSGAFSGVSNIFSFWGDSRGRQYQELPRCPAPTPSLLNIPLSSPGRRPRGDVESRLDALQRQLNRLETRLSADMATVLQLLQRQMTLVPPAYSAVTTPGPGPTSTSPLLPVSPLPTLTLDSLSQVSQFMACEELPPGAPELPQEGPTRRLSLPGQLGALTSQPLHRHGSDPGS
A short description of data set [20]: Cytotoxicity against human HepG2 cells. The data set is classed as toxicity, cell-based.
The next data set concerns the target CYP2C9 (Homo sapiens, UniProt P11712). Nature of the data set: Inhibition of CYP2C9 (unknown origin) at 10 uM relative to control. The data set is classed as ADME.
Another data set deals with CYP2D6 (Homo sapiens, UniProt P10635). Briefly: Inhibition of CYP2D6 (unknown origin) at 10 uM relative to control. The data set is classed as ADME.
Sequence of CYP2D6 (P10635 whole entry): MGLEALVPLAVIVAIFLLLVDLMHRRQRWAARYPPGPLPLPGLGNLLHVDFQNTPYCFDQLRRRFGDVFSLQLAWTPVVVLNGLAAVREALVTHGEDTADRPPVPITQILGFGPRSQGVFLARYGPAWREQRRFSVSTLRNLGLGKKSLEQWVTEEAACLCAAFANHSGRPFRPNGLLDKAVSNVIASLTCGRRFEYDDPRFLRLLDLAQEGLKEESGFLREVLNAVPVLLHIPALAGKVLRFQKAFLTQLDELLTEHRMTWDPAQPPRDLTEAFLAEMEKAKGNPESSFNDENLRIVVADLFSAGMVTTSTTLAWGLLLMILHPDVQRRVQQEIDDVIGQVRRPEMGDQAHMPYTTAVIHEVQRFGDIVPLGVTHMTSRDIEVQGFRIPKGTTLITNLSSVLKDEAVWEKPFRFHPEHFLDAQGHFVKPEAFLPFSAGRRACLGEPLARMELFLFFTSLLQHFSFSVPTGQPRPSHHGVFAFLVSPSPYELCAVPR
The target of data set [21] is T1, CYP3A4 (Homo sapiens, UniProt P08684). Nature of the data set: Inhibition of CYP3A4 (unknown origin) using midazolam as substrate at 10 uM relative to control. The data set is classed as ADME. The note with it: probe midazolam.
T1 sequence (P08684 whole entry): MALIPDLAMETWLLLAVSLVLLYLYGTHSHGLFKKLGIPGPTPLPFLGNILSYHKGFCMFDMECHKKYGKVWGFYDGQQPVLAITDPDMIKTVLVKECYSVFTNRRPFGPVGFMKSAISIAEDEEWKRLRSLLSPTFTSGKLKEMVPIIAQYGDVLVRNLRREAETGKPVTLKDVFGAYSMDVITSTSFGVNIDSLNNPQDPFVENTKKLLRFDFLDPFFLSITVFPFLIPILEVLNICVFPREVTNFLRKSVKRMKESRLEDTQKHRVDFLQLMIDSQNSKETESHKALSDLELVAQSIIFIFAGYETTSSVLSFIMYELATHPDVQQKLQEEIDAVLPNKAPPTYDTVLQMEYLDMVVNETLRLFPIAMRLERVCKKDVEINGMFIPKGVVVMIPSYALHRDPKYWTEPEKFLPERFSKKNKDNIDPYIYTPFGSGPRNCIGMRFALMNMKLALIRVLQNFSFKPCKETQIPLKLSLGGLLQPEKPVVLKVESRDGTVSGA
For data set [22], the target named is T1, CYP3A4. Briefly: Inhibition of CYP3A4 (unknown origin) using testosterone as substrate at 10 uM relative to control. The data set is classed as ADME. The note with it: probe testosterone.
Data set [23] in a line: Ratio of AUC (0 to 24 hrs) in C57BL/6J mouse brain to plasma. The data set is classed as ADME. The note with it: read-out: Ratio AUC.
The nature of data set [24]: AUC (0 to 24 hrs) in rat at 10 mg/kg, po. The data set is classed as ADME, organism-based. The note with it: in vivo.
Data set [25] can be described thus: Tmax in rat at 10 mg/kg, po. The data set is classed as ADME, organism-based. The note with it: in vivo.
Data set [26] can be described thus: Oral bioavailability in rat at 10 mg/kg. The data set is classed as ADME, organism-based. The note with it: in vivo.
Data set [27] can be described thus: Apparent volume of distribution in rat at 1 mg/kg, iv. The data set is classed as ADME, organism-based. To be noted: in vivo, read-out: Vz.
Data set [28] in a line: Half-life in rat at 1 mg/kg, iv. The data set is classed as ADME, organism-based. The note with it: in vivo.
Data set [29] can be described thus: Clearance in rat at 1 mg/kg, iv. The data set is classed as ADME, organism-based. The note with it: in vivo.
Data set [30] can be described thus: AUC (0 to 24 hrs) in dog at 5 mg/kg, po. The note with it: in vivo. The data set is classed as ADME, organism-based, Canis lupus familiaris.
The nature of data set [31]: Tmax in dog at 5 mg/kg, po. The data set is classed as ADME, organism-based, Canis lupus familiaris. The note with it: in vivo.
The nature of data set [32]: Oral bioavailability in dog at 5 mg/kg. The data set is classed as ADME, organism-based, Canis lupus familiaris. The note with it: in vivo.
Data set [33] can be described thus: Apparent volume of distribution in dog at 1 mg/kg, iv. The note with it: in vivo, read-out: Vz. The data set is classed as ADME, organism-based, Canis lupus familiaris.
The nature of data set [34]: Half-life in dog at 1 mg/kg, iv. The data set is classed as ADME, organism-based, Canis lupus familiaris. To be noted: in vivo.
Data set [35] in a line: Clearance in dog at 1 mg/kg, iv. The data set is classed as ADME, organism-based, Canis lupus familiaris. The note with it: in vivo.

Sequence of AP2-associated protein kinase 1 (Q2M2I8 whole entry): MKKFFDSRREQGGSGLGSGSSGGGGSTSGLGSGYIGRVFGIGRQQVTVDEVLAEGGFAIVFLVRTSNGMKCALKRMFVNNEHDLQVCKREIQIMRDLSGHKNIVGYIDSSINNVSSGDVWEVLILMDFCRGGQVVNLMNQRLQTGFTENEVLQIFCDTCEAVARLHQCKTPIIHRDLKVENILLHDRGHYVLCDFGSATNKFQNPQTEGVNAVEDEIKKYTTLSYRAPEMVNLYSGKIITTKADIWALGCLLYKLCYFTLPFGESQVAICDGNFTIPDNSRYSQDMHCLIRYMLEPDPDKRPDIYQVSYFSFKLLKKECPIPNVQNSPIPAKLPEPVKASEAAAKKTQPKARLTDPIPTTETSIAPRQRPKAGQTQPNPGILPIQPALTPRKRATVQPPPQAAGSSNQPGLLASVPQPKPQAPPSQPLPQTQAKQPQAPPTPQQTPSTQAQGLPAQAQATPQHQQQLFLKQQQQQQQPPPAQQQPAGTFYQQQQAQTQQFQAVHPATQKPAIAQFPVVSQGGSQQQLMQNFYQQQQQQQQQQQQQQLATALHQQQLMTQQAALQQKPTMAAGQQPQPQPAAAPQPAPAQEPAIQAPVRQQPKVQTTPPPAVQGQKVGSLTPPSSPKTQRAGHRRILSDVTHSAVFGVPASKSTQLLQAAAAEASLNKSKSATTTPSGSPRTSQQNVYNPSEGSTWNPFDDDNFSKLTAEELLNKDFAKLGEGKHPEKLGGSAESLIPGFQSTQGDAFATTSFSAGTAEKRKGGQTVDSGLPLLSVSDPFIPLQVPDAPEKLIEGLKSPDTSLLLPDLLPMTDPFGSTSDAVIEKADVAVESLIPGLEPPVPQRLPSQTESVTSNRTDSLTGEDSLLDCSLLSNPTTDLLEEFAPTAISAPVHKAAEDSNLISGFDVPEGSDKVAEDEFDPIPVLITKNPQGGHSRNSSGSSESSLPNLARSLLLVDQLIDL
Sequence of CYP2C9 (P11712 whole entry): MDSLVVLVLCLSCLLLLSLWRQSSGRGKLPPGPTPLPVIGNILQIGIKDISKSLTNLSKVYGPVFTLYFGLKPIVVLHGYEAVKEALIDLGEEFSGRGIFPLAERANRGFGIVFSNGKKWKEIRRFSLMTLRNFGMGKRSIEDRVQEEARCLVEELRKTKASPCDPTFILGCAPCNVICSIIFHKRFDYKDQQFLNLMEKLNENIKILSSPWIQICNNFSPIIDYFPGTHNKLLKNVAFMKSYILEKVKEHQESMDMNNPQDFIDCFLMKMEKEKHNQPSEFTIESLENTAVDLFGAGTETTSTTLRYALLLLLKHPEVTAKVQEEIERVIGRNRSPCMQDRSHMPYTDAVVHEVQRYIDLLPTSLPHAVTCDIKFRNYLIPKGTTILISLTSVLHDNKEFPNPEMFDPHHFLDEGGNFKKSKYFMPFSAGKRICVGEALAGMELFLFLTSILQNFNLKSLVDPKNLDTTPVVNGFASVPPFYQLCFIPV

Compound `CC(C)C[C@](C)(N)COc1ccc(-c2ccnc(C(F)F)c2)c2cncn12` gave a Cmax in [1] of 407 ng/mL. Also, in [2], the Tmax is 0.8 h. The AUC(0-t) in [3] was 2340 ng·h/mL. In data set [4], the half-life is 3.2 h.
In [5], `CC(C)C[C@](C)(N)COc1ccc(-c2ccnc(C(F)F)c2)c2nc(C(F)F)cn12` yielded an IC50 above 20 nM.
The same measure, in the same setting: the value for `CC(C)C[C@](C)(N)COc1ccc(-c2ccnc(C(F)F)c2)c2nncn12` was above 20 nM; that for `Cc1cn2c(OC[C@@](C)(N)CC(C)C)ccc(-c3ccnc(C(F)F)c3)c2n1` was above 20 nM.
Take `CC(C)C[C@](C)(N)COc1ccc(-c2ccnc(C(F)F)c2)n2cncc12`: the clearance in data set [6] was 45 mL/min/kg. For the same compound, the Vd in data set [7] was 11 L/kg. Also, the AUC(0-t) stood at 318 ng·h/mL in data set [8] and 4550 ng·h/mL in [3]. The half-life in [9] is 2.8 h; in data set [4] it was 3.27 h; in data set [11], 2.12 h; in data set [12], 2.23 h; in data set [13], 1.85 h; in data set [14] it was 1.72 h. The Cmax in data set [1] was determined as 706 ng/mL. In addition, the Tmax in data set [2] is 1 h. For the same compound, the bioavailability in [10] amounted to 143%. Moreover, the fraction unbound in data set [15] is 0.23; in [16], 0.107; in data set [17], 0.213; in data set [18] it was 0.195. Besides, the IC50 in [19] was 30000 nM; in data set [20] it was 43000 nM. The inhibition at 10 µM on CYP2C9 was below 20%; against CYP2D6, 81.1%; against CYP3A4 [21], below 20%; against CYP3A4 [22], below 20%.
Regarding `CC(C)C[C@](C)(N)COc1ccc(-c2ccnc(C(F)F)c2)c2cnccc12`, the IC50 in data set [5] was above 50 nM.
On the same count and under the same terms, with `Cc1cnc2c(-c3ccnc(C(F)F)c3)ccc(OC[C@@](C)(N)CC(C)C)n12` the figure was above 20 nM.
For `CC(C)C[C@](C)(N)COc1ccc(-c2ccnc(C(F)F)c2)nc1C(F)F` [PILAVAPADIN], the IC50 was found to be 5 nM in [5], 3400 nM in [19] and 9500 nM in data set [20]. In addition, the clearance in data set [6] is 12.2 mL/min/kg; in [29] it was 28.3 mL/min/kg; in data set [35], 20 mL/min/kg. Moreover, the Vd stood at 18 L/kg in [7], 25 L/kg in data set [27] and 5.3 L/kg in [33]. For the same compound, the AUC(0-t) in data set [8] came to 892 ng·h/mL; in data set [3], 9150 ng·h/mL; in data set [24], 3790 ng·h/mL; in data set [30] it was 4740 ng·h/mL. The half-life in data set [9] is 17.3 h; in [4], 19.6 h; in [11], 2.21 h; in data set [12], 2.61 h; in data set [13], 1.61 h; in [14], 1.11 h. Moreover, the half-life in [28] was 9.9 h; in data set [34], 3.2 h. In [1], this compound returned a Cmax of 718 ng/mL. For the same compound, the Tmax in data set [2] was determined as 1.17 h; in [25], 6.7 h; in [31], 2.3 h. Further, the bioavailability was determined as 103% in [10], 77% in data set [26] and 116% in data set [32]. Further, the fraction unbound was 0.0875 in [15], 0.02 in data set [16], 0.0894 in data set [17] and 0.0417 in data set [18]. Moreover, the inhibition at 10 µM at CYP2C9, on CYP2D6, against CYP3A4 [21] and against CYP3A4 [22] was below 20% in each case. Further, the Kp in [23] worked out at 13.9.
The compound `CC(C)C[C@](C)(N)COc1ccc(-c2ccnc(C(F)F)c2)n2cnnc12` gave an IC50 in [5] above 20 nM.
On the same count and under the same terms, with `CC(C)C[C@](C)(N)COc1ccc(-c2ccnc(C(F)F)c2)n2ccnc12` the figure was above 20 nM.

The values are drawn from ChEMBL document CHEMBL6083275, “Discovery and evaluation of HW161023 as a potent and orally active AAK1 inhibitor” (Bioorg Med Chem Lett, 2024).
